In PMC12472494, “Anticonvulsant Potential of 1-Aryl-6,7-dimethoxy-1,2,3,4-tetrahydroisoquinolines: Insights from Strychnine and Nicotine Models in In Vivo and In Silico Studies” (Pharmaceuticals, 2025):
Several values for one entry are separate records, joined by “and”; a condition that tells them apart may be missing. Equal entries are not always repeated. Entries after “also recorded” stand apart in the source; their conditions may differ.

Legend:
[1] = tested on: tremorogenic and convulsive actions of nicotine; assay: Nicotine-induced tremor and seizure model; type: in vivo, mice; settings: for responders at 1 mg/kg: Mus musculus, po, read-out: Survival Rate; for Duration of Seizures / Latency to Seizure Onset: oral dose 1.0 mg/kg 60 min before nicotine 10 mg/kg s.c., mean ± SD, N = 10; for survival rate of the animals increased to: at low doses (0.1–5 mg/kg); for activity against tremorogenic and convulsive actions of nicotine versus reference drugs (in words): doses of 0.1–5 mg/kg
Description: (§1) The anticonvulsant effects of the examined substances were studied in male white mice weighing 18–22 g, divided into the following groups: control (including the strychnine and nicotine groups), carbamazepine group, Convulex group, and experimental groups (one for each tested substance). Simple randomization (“heads or tails” coin toss) was used to assign animals to groups. Each group contained 10 animals. Healthy animals were included in the experiments after a 14-day quarantine period. No animals were excluded from the study. Convulsant agents were administered subcutaneously at doses of 10.0 mg/kg for nicotine (Sigma–Aldrich, Saint Louis, MO, USA) and 1.5 mg/kg for strychnine (Sigma–Aldrich, Saint Louis, MO, USA), 60 min after the oral administration of the test substances at doses ranging from 0.1 to 10 mg/kg. The onset time, duration of tremors and seizures, and survival rate of the animals were recorded. Carbamazepine (Darnitsa, Kiev, Ukraine) at doses of 5.0–10.0 mg/kg and Convulex (valproate) (Gerot Pharmazeutika GmbH, Vienna, Austria) at doses of 75.0–100.0 mg/kg (based on the therapeutic anticonvulsant dose) were used as reference drugs.
(§2) Data were presented as mean ± SD for different groups. Statistical analysis was performed using OriginPro 9.0 (MicroCal Software, Northampton, MA, USA), with p < 0.05 considered statistically significant.

[2] = design: method as in PMID 36677539; settings: per os; cited from earlier work
[3] = tested on: strychnine-induced seizures; assay: Strychnine-induced seizure model; type: in vivo, mice; settings: for responders at 1 mg/kg: Mus musculus, read-out: Survival Rate; for responders at 1 mg/kg / Duration of Tremor and Seizures / Latency to Tremor and Seizure Onset: oral dose 1.0 mg/kg 60 min before strychnine 1.5 mg/kg s.c., N = 10; for Duration of Tremor and Seizures / Latency to Tremor and Seizure Onset: mean ± SD
Description: as §1, §2

[4] = doses of 0.5–1 mg/kg, versus control

SMILES | responders at 1 mg/kg [1] [%] | Duration of Seizures [1] [min] | Latency to Seizure Onset [1] [min] | LD50 [2] | responders at 1 mg/kg [3] [%] | Duration of Tremor and Seizures [3] [min] | Latency to Tremor and Seizure Onset [3] [min] | survival rate of the animals increased to [1] | activity against tremorogenic and convulsive actions of nicotine versus reference drugs (in words) [1] | survival rate of strychnine-poisoned animals ([3]; dose not given) [%] | increase of animal survival ([3]; doses of 0.5–1 mg/kg) [%] | extension of the latency period for seizures [3, 4] | reduction of seizure duration [3, 4] | activity against strychnine-induced seizures (in words) ([3]; ranking within the series)
COc1cc2c(cc1OC)C(c1ccc(O)c(Br)c1)NCC2 (stereo not shown) [Compound 18, 1-(3′-Bromo-4′-hydroxyphenyl)-6,7-dimethoxy-1,2,3,4-tetrahydroisoquinoline] | 70 | 8.9 ± 0.9 | 1.7 ± 0.04 | 3850 mg/kg and 3793.8 (3395.8 ± 4088.1) mg/kg | 50 | 0.56 ± 0.6 | 14.6 ± 1.5 |  |  |  |  |  |  | 
COc1cc2c(cc1OC)C(c1cc3c(cc1Br)OCO3)NCC2 (stereo not shown) [Compound 30, 1-(2′-Bromo-4′,5′-methylenedioxyphenyl)-6,7-dimethoxy-1,2,3,4-tetrahydroisoquinoline] | 90 | 7.0 ± 0.2 | 2.5 ± 0.09 | 711.7 (604.3 ± 792.9) mg/kg | 30 | 0.41 ± 0.4 | 11.2 ± 1.2 | 90–100% | comparable activity to the reference drugs |  |  |  |  | 
COc1cc(Br)c(C2NCCc3cc(OC)c(OC)cc32)cc1OC (stereo not shown) [Compound 25, 1-(2′-Bromo-4′,5′-dimethoxyphenyl)-6,7-dimethoxy-1,2,3,4-tetrahydroisoquinoline] | 90 | 9.0 ± 0.9 | 2.2 ± 0.04 | 272.1 (249.1 ± 295.6) mg/kg | 90 | 0.14 ± 0.6 | 16.5 ± 1.5 | 90–100% | comparable activity to the reference drugs | 90 | 90 | 30–100% | 3.7–4 times | most active; also recorded: highest activity
COc1cc2c(cc1OC)C(c1ccccc1O)NCC2 (stereo not shown) [Compound 3, 1-(2′-Hydroxyphenyl)-6,7-dimethoxy-1,2,3,4-tetrahydroisoquinoline] | 90 | 9.0 ± 0.4 | 2.6 ± 0.08 | 365.3 (326.1 ± 394.5) mg/kg | 60 | 0.29 ± 0.6 | 14.5 ± 1.7 | 90–100% | comparable activity to the reference drugs |  |  |  |  | 
COc1cc2c(cc1OC)C(c1cccc(Cl)c1)NCC2 (stereo not shown) [Compound 11, 1-(3′-Chlorophenyl)-6,7-dimethoxy-1,2,3,4-tetrahydroisoquinoline] | 70 | 8.3 ± 0.3 | 2.2 ± 0.07 | 232.4 (211.8 ± 251.1) mg/kg | 70 | 0.46 ± 0.5 | 15.5 ± 1.2 |  |  |  |  |  |  | 
